From US20130225830A1, “POLYMORPHS OF FEBUXOSTAT” (MAPI PHARMA LIMITED, priority 2010, published 2013)
Values joined by “and” are separate entries in the source; they are usually repeats but may differ in a detail not shown here. Equal values may be shown once.

Columns and labels:
Type in all cases: physicochemical
[1] = Hygroscopicity measurements (DVS sorption/desorption profiles); details: for Hygroscopicity classification: 0-90% relative humidity
Procedure: The sorption/desorption profiles of the forms of the present invention were tested at 25° C. under 0-90% relative humidity. The forms of the present invention were classified according to the following criteria: Deliquescent: Sufficient water is absorbed to form a liquid. […] Hygroscopic: Increase in mass is less than 15% and equal to or greater than 2%. Slightly hygroscopic: Increase in mass is less than 2% and equal to or greater than 0.2%. Non-hygroscopic: Increase in mass is less than 0.2%.

[2] = Solid stability measurements (appearance, assay and total related substances by HPLC); details: for change of assay and TRS (in words): 60° C./75% RH at end of the first and second weeks; for Remaining (%): one value for both samples, vs −20° C. control; for Appearance / TRS (%): samples 1 and 2
Procedure: The detailed chromatographic conditions are listed hereinbelow. The typical retention time of febuxostat main peak is 8.2 min. [table] Testing conditions: 40° C., 60° C., 40° C./RH 75%, 60° C./RH 75%, light Testing procedure: About 3 mg of a febuxostat form were weighed in a glass vial and stored under the different conditions for 1 week and 2 weeks, separately. The same febuxostat form was stored at −20° C. as control. The test was conducted in duplication. The physical appearance, assay and total related substances of each of the febuxostat forms were measured by HPLC at the end of the first and second weeks.

[3] = Physical stability measurements (XRPD, DSC, TGA); details: for physical stability (XRPD, DSC, TGA): 40° C., 60° C. and light at the end of the first and second week
Procedure: Testing conditions: 40° C., 60° C., 40° C./RH 75%, 60° C./RH 75%, light
Testing procedure: About 50 mg of a febuxostat form were weighed in glass vial for testing the physical stability and were stored under different conditions for 1 week and 2 weeks, separately. The same febuxostat form was stored at −20° C. as control. XRPD, DSC and TGA of each of the febuxostat forms were measured at the end of the first and second weeks.

[4] = Bulk and tapped density measurements; details: for bulk and tapped densities (in words): compared among forms V, IX, XI and form G
Procedure: Bulk density testing: A febuxostat form in an amount which is sufficient to complete the test was passed through a 1.0 mm (No. 18) screen to break up agglomerates that may have formed during storage. The febuxostat form was then weighed (M) and the powder was added into a 10 mL graduated cylinder. The powder was carefully leveled without compacting, and the unsettled apparent volume, Vo, was read. The bulk density, in g per mL, was calculated by the formula: Bulk Density=M/Vo Tapped density testing: A febuxostat form in an amount which is sufficient to complete the test was passed through a 1.0 mm (No. 18) screen to break up agglomerates that may have formed during storage. The febuxostat form was then weighed and the powder was added into a 10 mL graduated cylinder. The powder was carefully leveled without compacting. The cylinder was tapped 500 times initially and the tapped volume, Va, was measured to the nearest graduated unit. The tapping was then repeated for additional 750 times and the tapped volume, Vb, was measured to the nearest graduated unit. If the difference between the two volumes was less than 2%, Vb was taken as the final tapped volume, Vf. The tapped density, in g per mL, was calculated by the formula: Tapped Density=M/Vf

[5] = 40° C./75% RH at the end of the second week
[6] = 60° C./75% RH at the end of the first and second weeks

## Cc1nc(-c2ccc(OCC(C)C)c(C#N)c2)sc1C(=O)O [Form IX, 2-(3-cyano-4-isobutoxyphenyl)-4-methyl-5-thiazolecarboxylic acid]
[1]; 25° C.
  Hygroscopicity classification: hygroscopic
[1]; DVS isotherm plots
  hygroscopicity compared with Form G of U.S. Pat. No. 6,225,474: less hygroscopic
[1]; Target % P/P0 0.0, 25° C.
  Change in Mass (%) - ref, Desorption: 0.031%
  Change in Mass (%) - ref, Sorption: 0.000%
[1]; Target % P/P0 10.0, 25° C.
  Change in Mass (%) - ref, Desorption: 0.247%
  Change in Mass (%) - ref, Hysteresis: 0.121%
  Change in Mass (%) - ref, Sorption: 0.127%
[1]; Target % P/P0 20.0, 25° C.
  Change in Mass (%) - ref, Desorption: 0.323%
  Change in Mass (%) - ref, Hysteresis: 0.128%
  Change in Mass (%) - ref, Sorption: 0.195%
[1]; Target % P/P0 30.0, 25° C.
  Change in Mass (%) - ref, Desorption: 0.428%
  Change in Mass (%) - ref, Hysteresis: 0.176%
  Change in Mass (%) - ref, Sorption: 0.252%
[1]; Target % P/P0 40.0, 25° C.
  Change in Mass (%) - ref, Desorption: 0.510%
  Change in Mass (%) - ref, Hysteresis: 0.160%
  Change in Mass (%) - ref, Sorption: 0.351%
[1]; Target % P/P0 50.0, 25° C.
  Change in Mass (%) - ref, Desorption: 0.616%
  Change in Mass (%) - ref, Hysteresis: 0.184%
  Change in Mass (%) - ref, Sorption: 0.432%
[1]; Target % P/P0 60.0, 25° C.
  Change in Mass (%) - ref, Desorption: 0.786%
  Change in Mass (%) - ref, Hysteresis: 0.221%
  Change in Mass (%) - ref, Sorption: 0.566%
[1]; Target % P/P0 70.0, 25° C.
  Change in Mass (%) - ref, Desorption: 1.139%
  Change in Mass (%) - ref, Hysteresis: 0.391%
  Change in Mass (%) - ref, Sorption: 0.747%
[1]; Target % P/P0 80.0, 25° C.
  Change in Mass (%) - ref, Desorption: 1.583%
  Change in Mass (%) - ref, Hysteresis: 0.583%
  Change in Mass (%) - ref, Sorption: 1.000%
[1]; Target % P/P0 90.0, 25° C.
  Change in Mass (%) - ref, Desorption: 2.135%
  Change in Mass (%) - ref, Sorption: 2.135%
[2]; 40° C., 60° C., 40° C./75% RH
  change of assay and TRS (in words): no significant change
[2]; 40° C., 7 d
  Remaining (%): 99.70%
  Appearance: No change
  TRS (%): 1.28% and 1.30%
[2]; 40° C., 14 d
  Remaining (%): 100.02%
  Appearance: No change
  TRS (%): 1.29% and 1.32%
[2]; 40° C./75% RH, 7 d
  Remaining (%): 100.47%
  Appearance: No change
  TRS (%): 1.34% and 1.31%
[2]; 40° C./75% RH, 14 d
  Remaining (%): 99.47%
  Appearance: No change
  TRS (%): 1.35% and 1.33%
[2]; 60° C., 7 d
  Remaining (%): 100.80%
  Appearance: No change
  TRS (%): 1.37% and 1.35%
[2]; 60° C., 14 d
  Remaining (%): 100.41%
  Appearance: No change
  TRS (%): 1.38% and 1.35%
[2]; 60° C./75% RH, 7 d
  Remaining (%): 100.89%
  Appearance: No change
  TRS (%): 1.33%
[2]; 60° C./75% RH, 14 d
  Remaining (%): 100.07%
  Appearance: No change
  TRS (%): 1.35% and 1.33%
[2]; Light, 7 d
  Remaining (%): 97.50%
  Appearance: Light yellow
  TRS (%): 3.07% and 3.05%
[2]; Light, 14 d
  Remaining (%): 92.81%
  Appearance: Light yellow
  TRS (%): 6.30% and 6.54%
[2]; −20° C. (control), 7 d
  Appearance: No change
  TRS (%): 1.23% and 1.22%
[2]; −20° C. (control), 14 d
  Appearance: No change
  TRS (%): 1.24% and 1.23%
[3]
  physical stability (XRPD, DSC, TGA): stable
[3]; [5]
  physical stability (XRPD, DSC, TGA), form conversion: partially converted to form G
[3]; [6]
  physical stability (XRPD, DSC, TGA), form conversion: completely converted to form G
[4]
  Bulk Density: 0.177 g/mL
  Tapped Density: 0.282 g/mL
  bulk and tapped densities (in words): lowest bulk and tapped densities

## Cc1nc(-c2ccc(OCC(C)C)c(C#N)c2)sc1C(=O)O [Form V, 2-(3-cyano-4-isobutoxyphenyl)-4-methyl-5-thiazolecarboxylic acid]
[1]; 25° C.
  Hygroscopicity classification: very hygroscopic
[1]; DVS, 25° C., might be attributed to DMSO evaporation at high humidity
  weight loss after sorption-desorption cycle: about 10%
[1]; Target % P/P0 0.0, 25° C.
  Change in Mass (%) - ref, Desorption: −9.66%
  Change in Mass (%) - ref, Sorption: 0.00%
[1]; Target % P/P0 10.0, 25° C.
  Change in Mass (%) - ref, Desorption: −8.56%
  Change in Mass (%) - ref, Hysteresis: −8.64%
  Change in Mass (%) - ref, Sorption: 0.08%
[1]; Target % P/P0 20.0, 25° C.
  Change in Mass (%) - ref, Desorption: −8.49%
  Change in Mass (%) - ref, Hysteresis: −8.60%
  Change in Mass (%) - ref, Sorption: 0.12%
[1]; Target % P/P0 30.0, 25° C.
  Change in Mass (%) - ref, Desorption: −8.40%
  Change in Mass (%) - ref, Hysteresis: −8.53%
  Change in Mass (%) - ref, Sorption: 0.14%
[1]; Target % P/P0 40.0, 25° C.
  Change in Mass (%) - ref, Desorption: −8.30%
  Change in Mass (%) - ref, Hysteresis: −8.50%
  Change in Mass (%) - ref, Sorption: 0.20%
[1]; Target % P/P0 50.0, 25° C.
  Change in Mass (%) - ref, Desorption: 1.16%
  Change in Mass (%) - ref, Hysteresis: 0.93%
  Change in Mass (%) - ref, Sorption: 0.23%
[1]; Target % P/P0 60.0, 25° C.
  Change in Mass (%) - ref, Desorption: 7.34%
  Change in Mass (%) - ref, Hysteresis: 7.02%
  Change in Mass (%) - ref, Sorption: 0.31%
[1]; Target % P/P0 70.0, 25° C.
  Change in Mass (%) - ref, Desorption: 14.03%
  Change in Mass (%) - ref, Hysteresis: 12.45%
  Change in Mass (%) - ref, Sorption: 1.59%
[1]; Target % P/P0 80.0, 25° C.
  Change in Mass (%) - ref, Desorption: 23.42%
  Change in Mass (%) - ref, Hysteresis: 7.98%
  Change in Mass (%) - ref, Sorption: 15.44%
[1]; Target % P/P0 90.0, 25° C.
  Change in Mass (%) - ref, Desorption: 36.92%
  Change in Mass (%) - ref, Sorption: 36.92%
[2]; 40° C., 60° C., 40° C./75% RH
  change of assay and TRS (in words): no significant change
[2]; 40° C., 7 d
  Remaining (%): 100.62%
  Appearance: No change
  TRS (%): 0.45%
[2]; 40° C., 14 d
  Remaining (%): 100.01%
  Appearance: No change
  TRS (%): 0.46% and 0.47%
[2]; 40° C./75% RH, 7 d
  Remaining (%): 99.40%
  Appearance: No change
  TRS (%): 0.47% and 0.48%
[2]; 40° C./75% RH, 14 d
  Remaining (%): 99.03%
  Appearance: No change
  TRS (%): 0.50% and 0.52%
[2]; 60° C., 7 d
  Remaining (%): 100.65%
  Appearance: No change
  TRS (%): 0.53% and 0.51%
[2]; 60° C., 14 d
  Remaining (%): 100.06%
  Appearance: No change
  TRS (%): 0.54% and 0.53%
[2]; 60° C./75% RH, 7 d
  Remaining (%): 98.20%
  Appearance: No change
  TRS (%): 0.51% and 0.52%
[2]; 60° C./75% RH, 14 d
  Remaining (%): 98.87%
  Appearance: No change
  TRS (%): 0.52% and 0.53%
[2]; Light, 7 d
  Remaining (%): 97.74%
  Appearance: Light yellow
  TRS (%): 1.02% and 1.18%
[2]; Light, 14 d
  Remaining (%): 94.06%
  Appearance: Light yellow
  TRS (%): 5.99% and 5.08%
[2]; −20° C. (control), 7 d
  Appearance: No change
  TRS (%): 0.40% and 0.39%
[2]; −20° C. (control), 14 d
  Appearance: No change
  TRS (%): 0.42% and 0.41%
[3]
  physical stability (XRPD, DSC, TGA): stable
[3]; 40° C./75% RH at the end of the first week
  physical stability (XRPD, DSC, TGA), form conversion: partially converted to form G
[3]; [5]
  physical stability (XRPD, DSC, TGA), form conversion: completely converted to form G
[3]; [6]
  physical stability (XRPD, DSC, TGA), form conversion: completely converted to form G
[4]
  Bulk Density: 0.444 g/mL
  Tapped Density: 0.637 g/mL
  bulk and tapped densities (in words): adequate bulk and tapped densities
